Tests used:
[1] = molecular target: PECPS N199F (Aquilaria sinensis, UniProt A0A385MEG6, N199F); test: ITC binding to PECPS N199F mutant
Method: ITC measurements of affinity (KD), stoichiometry (n) and apparent enthalpy change (ΔH°) were obtained using a Nano LV ITC calorimeter (TA Instruments). Samples for cell and injectant solutions were prepared in the same buffer (100 mM KPB, pH 7.5). All experiments were conducted at 37 °C with a stirring speed of 240 rpm and a sequence of 20 injections of 2.5 μL and 380 s delays between succeeding injections. The sample cell was filled with 47–85 μM protein solution (300 μl), while 1.09 mM 4-hydroxyphenylpropionyl-CoA (or 1.15 mM benzoyl-CoA) solution was placed in the syringe. The resulting data were processed with the standard NanoAnalyze software package (version 3.11.0), assuming the model of one type of binding site with an apparent stoichiometry close to 1:1. The first injection resulting in a heat change was disregarded in the later analysis. Titration experiments were performed in triplicate to show reproducibility. Control experiments confirmed that the heats of dilution caused by the reactant being titrated into buffer and the buffer into protein solution were negligible. The heats of dilution for the sample in the cell were subtracted from the final trace before integration with respect to time. The thermodynamic data obtained from the traces were averaged across three runs, and a standard deviation was calculated. […]

[2] = molecular target: wild type PECPS (Aquilaria sinensis, UniProt A0A385MEG6); test: ITC binding to wild type PECPS; settings: mean ± SD (n = 3)
Chain of wild type PECPS (A0A385MEG6 entry or part of it): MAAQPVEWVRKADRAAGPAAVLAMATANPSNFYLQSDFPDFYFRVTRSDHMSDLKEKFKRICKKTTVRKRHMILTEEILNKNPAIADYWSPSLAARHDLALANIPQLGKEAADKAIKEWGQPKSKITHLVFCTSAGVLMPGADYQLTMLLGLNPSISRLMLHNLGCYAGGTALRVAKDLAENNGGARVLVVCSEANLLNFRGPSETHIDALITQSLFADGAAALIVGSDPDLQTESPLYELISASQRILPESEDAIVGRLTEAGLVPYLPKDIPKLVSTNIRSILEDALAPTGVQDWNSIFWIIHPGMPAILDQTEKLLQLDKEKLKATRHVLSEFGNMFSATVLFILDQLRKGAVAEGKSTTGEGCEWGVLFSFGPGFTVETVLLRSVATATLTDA
Method: (§1) ITC measurements of affinity (KD), stoichiometry (n) and apparent enthalpy change (ΔH°) were obtained using a Nano LV ITC calorimeter (TA Instruments). Samples for cell and injectant solutions were prepared in the same buffer (100 mM KPB, pH 7.5). All experiments were conducted at 37 °C with a stirring speed of 240 rpm and a sequence of 20 injections of 2.5 μL and 380 s delays between succeeding injections. The sample cell was filled with 47–85 μM protein solution (300 μl), while 1.09 mM 4-hydroxyphenylpropionyl-CoA (or 1.15 mM benzoyl-CoA) solution was placed in the syringe. The resulting data were processed with the standard NanoAnalyze software package (version 3.11.0), assuming the model of one type of binding site with an apparent stoichiometry close to 1:1. The first injection resulting in a heat change was disregarded in the later analysis. Titration experiments were performed in triplicate to show reproducibility. Control experiments confirmed that the heats of dilution caused by the reactant being titrated into buffer and the buffer into protein solution were negligible. The heats of dilution for the sample in the cell were subtracted from the final trace before integration with respect to time. The thermodynamic data obtained from the traces were averaged across three runs, and a standard deviation was calculated. Representative ITC thermograms and isotherm plots for experiments can be found in Supplementary Fig. 35.

[3] = molecular target: PECPS N199L (Aquilaria sinensis, UniProt A0A385MEG6, N199L); test: ITC binding to PECPS N199L mutant
Chain of PECPS N199L (A0A385MEG6 entry or part of it N199L): as the sequence (A0A385MEG6 entry or part of it) above, with N199L counted along it
Method: as §1
(§2) Plasmids expressing the PECPS mutants (A210E, F340W, N199L, and N199F) were generated by the Fast Mutagenesis System ([…] BIOTECH) according to the manufacturer’s instructions, using designed primers (Supplementary Table 5). The mutant enzymes were expressed, extracted, and purified by the same procedure as that for the wild type PECPS, and used in the enzyme assay and for crystallization.

[4] = molecular target: PECPS A210E (Aquilaria sinensis, UniProt A0A385MEG6, A210E); test: ITC binding to PECPS A210E mutant
Chain of PECPS A210E (A0A385MEG6 entry or part of it A210E): as the sequence (A0A385MEG6 entry or part of it) above, with A210E counted along it
Method: as §1, §2

[5] = molecular target: PECPS F340W (Aquilaria sinensis, UniProt A0A385MEG6, F340W); test: ITC binding to PECPS F340W mutant
Chain of PECPS F340W (A0A385MEG6 entry or part of it F340W): as the sequence (A0A385MEG6 entry or part of it) above, with F340W counted along it
Method: as §1, §2

Chain of PECPS N199F (A0A385MEG6 entry or part of it N199F): as the sequence (A0A385MEG6 entry or part of it) above, with N199F counted along it

`CC(C)(COP(=O)(O)OP(=O)(O)OC[C@H]1O[C@@H](n2cnc3c(N)ncnc32)[C@H](O)[C@@H]1OP(=O)(O)O)[C@@H](O)C(=O)NCCC(=O)NCCSC(=O)CCc1ccc(O)cc1` [4-hydroxyphenylpropionyl-CoA] was tested, and the Kd [1] was roughly 1 mM, the “-TΔS” value ([2]; ITC) was -15.68 ± 1.94 kJ/mol and the “n (stoichiometry)” value ([2]; ITC) was 1.10±0.12. It also gave a ΔH ([2]; ITC) of -12.42 ± 1.78 kJ/mol, a ΔS ([2]; ITC) of 50.56 ± 6.28 J/molꞏK and a Ka ([2]; ITC, listed as 4-hydorxyphenylpropionyl-CoA) of 54.06 ± 4.14 mM⁻¹. The Kd ([2]; Supplementary Table 4, ITC) was 18.6 ± 1.37 µM, the Kd [3] was 120 ± 10.8 µM and the Ka ([3]; ITC, mean ± SD (n = 3)) was 8.35 ± 0.71 mM⁻¹. The “n (stoichiometry)” value ([3]; ITC, mean ± SD (n = 3)) was 0.87±0.06, the ΔG ([3]; ITC, mean ± SD (n = 3)) was -23.28 ± 0.23 kJ/mol and the ΔH ([3]; ITC, mean ± SD (n = 3)) was -19.70 ± 1.68 kJ/mol. For the same compound, the ΔS ([3]; ITC, mean ± SD (n = 3)) was 11.50 ± 4.86 J/molꞏK, the “binding affinity, times weaker than that of wild type PECPS” value ([3]; N199L vs wild type PECPS, ITC) was 6.5 times and the Kd [4] was 40.1 ± 4.52 µM. The “binding affinity, times lower than that of the wild-type” value ([4]; A210E vs wild type PECPS, ITC) was 2.1 times, the “-TΔS” value ([4]; ITC, mean ± SD (n = 3)) was -10.39 ± 1.66 kJ/mol and the Ka ([4]; ITC, mean ± SD (n = 3)) was 25.12 ± 2.98 mM⁻¹. For the same compound, the “n (stoichiometry)” value ([4]; ITC, mean ± SD (n = 3)) was 0.99±0.02, the ΔG ([4]; ITC, mean ± SD (n = 3)) was -26.12 ± 0.30 kJ/mol and the ΔH ([4]; ITC, mean ± SD (n = 3)) was -15.73 ± 1.35 kJ/mol. For the same compound, the ΔS ([4]; ITC, mean ± SD (n = 3)) was 33.49 ± 5.34 J/molꞏK, the Kd [5] was 12.4 ± 2.07 µM and the “-TΔS” value ([5]; ITC, mean ± SD (n = 3)) was -21.97 ± 1.17 kJ/mol. The Ka ([5]; ITC, mean ± SD (n = 3)) was 82.07 ± 12.96 mM⁻¹, the “n (stoichiometry)” value ([5]; ITC, mean ± SD (n = 3)) was 0.91±0.06 and the ΔG ([5]; ITC, mean ± SD (n = 3)) was -29.16 ± 0.42 kJ/mol. The ΔH ([5]; ITC, mean ± SD (n = 3)) was -7.19 ± 0.74 kJ/mol and the ΔS ([5]; ITC, mean ± SD (n = 3)) was 70.83 ± 3.75 J/molꞏK.

— publication PMC8764113 (Nature Communications, 2022)
